Assay results reported in PMC8242589, “Cardiac Safety of Kinase Inhibitors – Improving Understanding and Prediction of Liabilities in Drug Discovery Using Human Stem Cell-Derived Models” (Frontiers in Cardiovascular Medicine, 2021).
pIC50: −log10 of the molar value. Several values for one entry are separate records, joined by “and”; a condition that tells them apart may be missing. Equal values may be shown once. Read-outs that look alike come from different tables or passages of the source.

Key:
[1] = test system: hSC-CMs (Cor.4U Cardiomyocytes); assay: CardioExcyte 96 impedance and EFP recording (beating rate, base impedance); type: cell-based, human; settings: for BR / Base Imp / activity at 0.03 µM / activity at 0.3 µM / activity at 3 µM / activity at 30 µM: vs baseline before drug (taken as 100%); for activity at 0.03 µM / activity at 0.3 µM / activity at 3 µM / activity at 30 µM: Homo sapiens, Cardiomyocyte
Method: Cor.4U® Cardiomyocytes (Ncardia, Netherlands) were cultured in 96-well plates at density of 25,000 – 30,000 cells per well. Cells were maintained at 5% CO2 and 37 °C for 4 days prior to experiments.
Functional monitoring of cardiomyocytes was done using CardioExcyte® 96 (Nanion technologies GmbH, Germany). Extracellular field potential (EFP) and impedance signals were recorded from hSC-CMs that formed monolayers in the wells of the NSP-96 plate. Beating Rate (BR, per minute) was calculated as the reciprocal of the inter-spike interval (ISI) in EFP signal. Impedance signals from spontaneously beating hSC-CMs were recorded with a sampling rate of 1 ms (1 kHz), and EFP data were collected at 0.1ms (10 kHz). Data acquisition was controlled by CardioExcyte® 96 Control software as previously described ([22]). The functional parameters recorded in each concentration of test items were compared to the base line values before drug addition (taken as 100%) to define fractional change.

[2] = test system: hSC-CMs (Cor.4U Cardiomyocytes); assay: Apoptosis assay (CellEvent Caspase-3/7 Green, IncuCyte ZOOM kinetics over 24 h); type: cell-based, human; parameters: key to Caspase / Caspase MEAN: % of time-matched vehicle control (green object area); settings: for Caspase / activity at 0.03 µM / activity at 0.3 µM / activity at 3 µM / activity at 30 µM: normalized to time-matched vehicle control; for activity at 0.03 µM / activity at 0.3 µM / activity at 3 µM / activity at 30 µM: Homo sapiens, Cardiomyocyte; for Caspase MEAN: DMSO = 100
Method: Cor.4U® Cardiomyocytes ([…], Netherlands) were cultured in 96-well plates at density of 25,000 - 30,000 cells per well. Cells were maintained at 5% CO2 and 37 °C for 4 days prior to experiments. […] The plates were incubated 2 h before compound treatment in the IncuCyte ZOOM (ESSEN BioScience, Ann Arbor, Michigan) to set a baseline before the 24 h compound treatment. […] Imaging was done using 10x microscope objective of the IncuCyteZOOM with four images per well-taken every 2 h in both phase-contrast and green fluorescence. The fluorescent nuclear signal of the apoptotic cells was separated from background with the integrated object counting algorithm, adjusted to cardiomyocytes, and the calculated total green object area per well (μm^2/well) plotted against time. Data were normalized to those of the time-matched vehicle control. Data were representative of at least three replicates per concentration.

[3] = test system: hSC-CMs (Cor.4U Cardiomyocytes); assay: ATP assay (CellTiter-Glo Luminescent Cell Viability Assay); type: cell-based, human; settings: for ATP: normalized to time-matched DMSO control
Method: Cor.4U® Cardiomyocytes (Ncardia, Netherlands) were cultured in 96-well plates at density of 25,000 – 30,000 cells per well. Cells were maintained at 5% CO2 and 37 °C for 4 days prior to experiments. The cell culture medium (Cor4U® Complete Culture Medium, cat# Ax-M-HC250E, Axiogenesis AG, Cologne, Germany) was changed every 24 h and was replaced by serum-free BMCC medium (cat# Ax-M-BMCC259, Axiogenesis AG, Cologne, Germany) 12 h prior to drug addition.
The CellTiter-Glo Luminescent Cell Viability Assay (cat# G7572, Promega, USA) was performed for quantification of the cellular ATP concentration according to manufacturer's instructions. Plates were shaken for 2 min in the dark, incubated at ambient temperature for 10 min before measuring luminescence (Integration time 0.1 seconds per well) with Luminescence Counter (Synergy H1, BioTek Instruments, Inc., Winooski, Vermont). The measured ATP concentration values were normalized to the time-matched DMSO controls. Data are representative of at least three replicates per concentration.

[4] = test system: PI3K p110β; settings: ref [23]–[25] (NVP-BEZ235), [27] (LY 294002), [28] (GDC-0941), [32] (TGX-221), [33] (CAL-101), [35] (CZC24832); read-out: Target IC50 p110β; cited from earlier work

CCOC(=O)c1cnc2ccc(-c3cncc(NS(=O)(=O)c4ccccc4)c3)cn12 [HS-173]
BR ([1]; 0.03 µM, 2h): 105 | Base Imp ([1]; 0.03 µM, 2h): 87 | BR ([1]; 0.03 µM, 24h): 97 | Base Imp ([1]; 0.03 µM, 24h): 87 | BR ([1]; 0.1 µM, 2h): 93 | Base Imp ([1]; 0.1 µM, 2h): 83 | BR ([1]; 0.1 µM, 24h): 89 | Base Imp ([1]; 0.1 µM, 24h): 85 | BR ([1]; 0.3 µM, 2h): 85 | Base Imp ([1]; 0.3 µM, 2h): 81 | BR ([1]; 0.3 µM, 24h): 84 | Base Imp ([1]; 0.3 µM, 24h): 72 | BR ([1]; 1 µM, 2h): 86 | Base Imp ([1]; 1 µM, 2h): 69 | BR ([1]; 1 µM, 24h): 75 | Base Imp ([1]; 1 µM, 24h): 67 | Reduction of base impedance ([1]; hSC-CMs, 2 and 24 h): more than 20% | Reduction of beating rate ([1]; hSC-CMs, 2 and 24 h): more than 20% | Apoptosis (caspase-3/7 activation), result in words [2]: induced apoptosis in hSC-CMs with a fast onset | Caspase ([2]; 0.03 µM, 2h): 167 | Caspase ([2]; 0.03 µM, 24h): 80 | Caspase ([2]; 0.1 µM, 2h): 138 | Caspase ([2]; 0.1 µM, 24h): 151 | Caspase ([2]; 0.3 µM, 2h): 123 | Caspase ([2]; 0.3 µM, 24h): 200 | Caspase ([2]; 1 µM, 2h): 120 | Caspase ([2]; 1 µM, 24h): 373 | Time to reach the maximum number of apoptotic cells ([2]; hSC-CMs, monitored over 24 h): ≤ 12 h | ATP ([3]; 0.03 µM, 2h): 89 | ATP ([3]; 0.03 µM, 24h): 98 | ATP ([3]; 0.1 µM, 2h): 87 | ATP ([3]; 0.1 µM, 24h): 99 | ATP ([3]; 0.3 µM, 2h): 86 | ATP ([3]; 0.3 µM, 24h): 90 | ATP ([3]; 1 µM, 2h): 86 | ATP ([3]; 1 µM, 24h): 83 | Decrease of ATP level ([3]; hSC-CMs, after 24 h of incubation): 20–25%

Cn1c(=O)n(-c2ccc(C(C)(C)C#N)cc2)c2c3cc(-c4cnc5ccccc5c4)ccc3ncc21 [NVP-BEZ235, Dactolisib]
activity at 0.03 µM ([1]; 0.03 µM, 2h, read-out: BR): 99% | activity at 0.03 µM ([1]; 0.03 µM, 2h, read-out: Base Imp): 88% | activity at 0.03 µM ([1]; 0.03 µM, 24h, read-out: BR): 90% | activity at 0.03 µM ([1]; 0.03 µM, 24h, read-out: Base Imp): 85% | activity at 0.3 µM ([1]; 0.3 µM, 2h, read-out: BR): 73% | activity at 0.3 µM ([1]; 0.3 µM, 2h, read-out: Base Imp): 86% | activity at 0.3 µM ([1]; 0.3 µM, 24h, read-out: BR): 57% | activity at 0.3 µM ([1]; 0.3 µM, 24h, read-out: Base Imp): 75% | activity at 3 µM ([1]; 3 µM, 2h, read-out: BR): 39% | activity at 3 µM ([1]; 3 µM, 2h, read-out: Base Imp): 71% | activity at 3 µM ([1]; 3 µM, 24h, read-out: BR): 14% | activity at 3 µM ([1]; 3 µM, 24h, read-out: Base Imp): 52% | activity at 30 µM ([1]; 2h, read-out: BR): 19% | activity at 30 µM ([1]; 2h, read-out: Base Imp): 51% | activity at 30 µM ([1]; 24h, read-out: BR): 30% | activity at 30 µM ([1]; 24h, read-out: Base Imp): 45% | Effect on cardiomyocyte function in 3D surface plots (beating rate, base impedance, ATP), in words ([1]; hSC-CMs, 2 and 24 h): pronounced effects | Reduction of base impedance ([1]; hSC-CMs, 2 and 24 h): more than 20% | Reduction of beating rate ([1]; hSC-CMs, 2 and 24 h): more than 20% | activity at 0.03 µM ([2]; 0.03 µM, 2h): 242% | activity at 0.03 µM ([2]; 0.03 µM, 24h): 188% | activity at 0.3 µM ([2]; 0.3 µM, 2h): 148% | activity at 0.3 µM ([2]; 0.3 µM, 24h): 320% | activity at 3 µM ([2]; 3 µM, 2h): 72% | activity at 3 µM ([2]; 3 µM, 24h): 228% | activity at 30 µM ([2]; 2h): 86% | activity at 30 µM ([2]; 24h): 355% | Apoptosis (caspase-3/7 activation), result in words ([2]; hSC-CMs, monitored over 24 h): induced apoptosis in hSC-CMs with a fast onset | Time to reach the maximum number of apoptotic cells ([2]; hSC-CMs, monitored over 24 h): ≤ 12 h

CN[C@@H]1C[C@H]2O[C@@](C)([C@@H]1OC)n1c3ccccc3c3c4c(c5c6ccccc6n2c5c31)C(=O)NC4 [Staurosporine]
Caspase MEAN ([2]; 1 µM, Time 2.75): 85 | Caspase MEAN ([2]; 1 µM, Time 4.75): 254 | Caspase MEAN ([2]; 1 µM, Time 6.75): 1532 | Caspase MEAN ([2]; 1 µM, Time 8.75): 3137 | Caspase MEAN ([2]; 1 µM, Time 10.75): 4841 | Caspase MEAN ([2]; 1 µM, Time 12.75): 5989 | Caspase MEAN ([2]; 1 µM, Time 14.75): 7301 | Caspase MEAN ([2]; 1 µM, Time 16.75): 7458 | Caspase MEAN ([2]; 1 µM, Time 18.75): 8506 | Caspase MEAN ([2]; 1 µM, Time 20.75): 7604 | Caspase MEAN ([2]; 1 µM, Time 22.75): 7381 | Caspase MEAN ([2]; 1 µM, Time 24.75): 7608 | Caspase MEAN ([2]; 1 µM, Time 26.75): 7240

Cc1cc(C(C)Nc2ccccc2)c2nc(N3CCOCC3)cc(=O)n2c1 (centres unmarked) [TGX-221]
Effect on hSC-CMs function (base impedance and beating rate), in words [1]: did not have any effect | BR ([1]; 0.1 µM, 2h): 98 | Base Imp ([1]; 0.1 µM, 2h): 107 | BR ([1]; 0.1 µM, 24h): 94 | Base Imp ([1]; 0.1 µM, 24h): 106 | BR ([1]; 0.3 µM, 2h): 93 | Base Imp ([1]; 0.3 µM, 2h): 104 | BR ([1]; 0.3 µM, 24h): 91 | Base Imp ([1]; 0.3 µM, 24h): 100 | BR ([1]; 1 µM, 2h): 94 | Base Imp ([1]; 1 µM, 2h): 98 | BR ([1]; 1 µM, 24h): 95 | Base Imp ([1]; 1 µM, 24h): 97 | BR ([1]; 3 µM, 2h): 95 | Base Imp ([1]; 3 µM, 2h): 97 | BR ([1]; 3 µM, 24h): 89 | Base Imp ([1]; 3 µM, 24h): 98 | Change in the hSC-CMs parameters (surface plots: beating rate, base impedance, ATP) ([1]; hSC-CMs, 2 and 24 h): below 20% | Apoptosis (caspase-3/7 activation), result in words [2]: no effect | Caspase ([2]; 0.1 µM, 2h): 104 | Caspase ([2]; 0.1 µM, 24h): 87 | Caspase ([2]; 0.3 µM, 2h): 112 | Caspase ([2]; 0.3 µM, 24h): 95 | Caspase ([2]; 1 µM, 2h): 87 | Caspase ([2]; 1 µM, 24h): 92 and 92.1743 | Caspase ([2]; 3 µM, 2h): 124 | Caspase ([2]; 3 µM, 24h): 111 and 110.619 | ATP ([3]; 0.1 µM, 2h): 105 | ATP ([3]; 0.1 µM, 24h): 95 | ATP ([3]; 0.3 µM, 2h): 100 | ATP ([3]; 0.3 µM, 24h): 96 | ATP ([3]; 1 µM, 2h): 97 | ATP ([3]; 1 µM, 24h): 97 | ATP ([3]; 3 µM, 2h): 104 | ATP ([3]; 3 µM, 24h): 104 | Effect on ATP level, in words ([3]; hSC-CMs, up to the highest test concentrations): did not have any effect | pIC50 [4]: 8.30
